Consider 17 compounds from US20250092064A1, “BENZOTRIAZOLE COMPOUND” (DAIICHI SANKYO COMPANY, LIMITED, priority 2022, published 2025).

For assay [1], the target named is binding between Nrf2 and Keap1 (Homo sapiens (Human), UniProt Q14145). As to the kind of experiment: FP assay (in vitro): inhibition of Nrf2-Keap1 binding by fluorescence polarization. The following applies: GST-fused human Keap1 (325-642) 20 nM, FITC-labeled Nrf2 peptide 10 nM, 2 hr at room temperature. In general terms: Polarisation of emitted light reports the rotation of a fluorescent probe.

The test system of assay [2] is NQO1 activity in Hepa1c1c7 cells. Kind of assay: NAD(P)H: quinone oxidoreductase-1 (NQO1) enzyme induction assay (in vitro). It is filed as cell-based, mouse. The conditions noted are these: about 48 hr; for fold induction at 0.4 µM: Mus musculus, Hepa-1c1c7, NQO1 activity with 400 nM test compound as a ratio from the base without compound. As to the method:
The NQO1 assay was performed based on a previous report (Methods in Enzymology 2004; 382: 243-258). Hepa1c1c7 cells (mouse hepatocyte cell line, ATCC, cat. no. CRL-2026) were cultured in D-MEM medium containing 10% FBS and 1% penicillin/streptomycin (5% CO2, 37° C.), and seeded into 96-well plates (Corning REF. 353072) at 1×10^4 cells/well. A portion of the wells were prepared with medium only for background measurement without seeding cells. The next day, 400 nM of the test compound (0.004% of the final concentration in DMSO) dissolved in DMSO was added thereto, and the wells were incubated for about 48 hr. A well without adding the test compound was prepared for base activity assay in part. […] After the medium was removed, 50 μL of the cell lysate was added and incubated at 37° C. for 10 minutes, followed by shaking at room temperature for 10 minutes. 200 μL of reaction solution was added thereto, and allowed to stand for 5 minutes at room temperature. 50 μL of the stop solution was added thereto, and absorbance was measured at 610 nm on a SpectraMax PLUS384 (Molecular devices) or […] Pharma Biomedical). The test results were analyzed in Excel, and the NQO1 activity upon addition of 400 nM of test compound was calculated as a ratio from the base without the compound. NQO1 activity ratio when test compound is added=(absorbance when test compound is added-absorbance of medium only)/(absorbance without addition of compound-absorbance of medium only) [numerical formula 2] The results of each test compound in this test are shown in the following Table 2 (A:5<NQO1 activity ratio, B:3<NQO1 activity ratio≤5).

pIC50: −log10 of the molar value.

binding between Nrf2 and Keap1, sequence (Q14145 325-624 limits assumed): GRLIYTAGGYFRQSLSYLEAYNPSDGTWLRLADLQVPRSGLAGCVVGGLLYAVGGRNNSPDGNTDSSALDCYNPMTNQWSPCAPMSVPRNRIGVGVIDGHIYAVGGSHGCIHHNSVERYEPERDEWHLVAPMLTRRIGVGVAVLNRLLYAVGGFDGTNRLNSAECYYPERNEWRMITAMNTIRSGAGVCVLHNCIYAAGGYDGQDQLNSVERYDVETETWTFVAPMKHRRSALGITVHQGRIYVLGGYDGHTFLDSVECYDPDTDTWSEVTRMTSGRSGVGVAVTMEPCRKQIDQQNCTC

For orientation: pIC50 means the IC50 on a negative log10 scale, so that one unit is a factor of ten. A higher pIC50 goes with a small IC50. For orientation: fold induction means the signal under treatment as a multiple of the control signal. With `Cc1c(C(CC(=O)O)c2cc(CN3C[C@@H](C)Oc4ccccc4S3(=O)=O)c3cc[nH]c3c2)ccc2c1nnn2C` (stereo partly drawn) [Example 90, 3-(1,4-Dimethyl-1H-benzotriazol-5-yl)-3-(4-{[(4R)-4-methyl-1,1-dioxido-3,4-dihydro-2H-5,1,2-benzoxathiazepin-2-yl]methyl}-1H-indol-6-yl)propanoic acid], the pIC50 in assay [1] was 7.52 to 8.00. Also, the fold induction at 0.4 µM in assay [2] was more than 5.

`CC[C@@H]1CN(Cc2cc([C@@H](CC(=O)O)c3cc(OC(F)F)c4c(nnn4C)c3C)cc3c2CCC3)S(=O)(=O)c2cc(Cl)cnc2O1` [Example 98, (3R)-3-(7-{[(4R)-8-Chloro-4-ethyl-1,1-dioxido-3,4-dihydro-2H-pyrido[2,3-b][1,4,5]oxathiazepin-2-yl]methyl}-2,3-dihydro-1H-inden-5-yl)-3-[7-(difluoromethoxy)-1,4-dimethyl-1H-benzotriazol-5-yl]propanoic acid]: the pIC50 in assay [1] is not below 8.00. The fold induction at 0.4 µM in assay [2] was more than 5.

Take `Cc1c([C@H](CC(=O)O)c2cc(CN3C[C@@H](C4CC4)Oc4ccc(O)nc4C3C)c3sccc3c2)cnc2c1nnn2C` (single isomer, unassigned) [Example 85, (3R)-3-(7-{[(2R,5R*)-2-Cyclopropyl-7-hydroxy-5-methyl-2,3-dihydropyrido[2,3-f][1,4]oxazepin-4(5H)-yl]methyl}-1-benzothiophen-5-yl)-3-(3,7-dimethyl-3H-[1,2,3]triazolo[4,5-b]pyridin-6-yl)propanoic acid]: in assay [1], the pIC50 is 7.52 to 8.00. Also, in assay [2], the fold induction at 0.4 µM is more than 5.

Take `CC[C@@H]1CN(Cc2cc([C@H](CC(=O)O)c3cc(C4CC4)c4c(nnn4C)c3C)cc3ccsc23)S(=O)(=O)c2cc(Cl)cnc2O1` [Example 41, (3S)-3-(7-{[(4R)-8-Chloro-4-ethyl-1,1-dioxido-3,4-dihydro-2H-pyrido[2,3-b][1,4,5]oxathiazepin-2-yl]methyl}-1-benzothiophen-5-yl)-3-(7-cyclopropyl-1,4-dimethyl-1H-benzotriazol-5-yl)propanoic acid]: the pIC50 in assay [1] is not below 8.00. In assay [2], the fold induction at 0.4 µM is more than 5.

`CC[C@@H]1Cc2ccccc2S(=O)(=O)N(Cc2cc([C@@H](CC(=O)O)c3ccc4c(nnn4C)c3C)cc3c2CCC3)C1` (single isomer, unassigned) [Example 28, (3R)-3-(1,4-Dimethyl-1H-benzotriazol-5-yl)-3-(7-{[(4S*)-4-ethyl-1,1-dioxido-4,5-dihydro-1,2-benzothiazepin-2(3H)-yl]methyl}-2,3-dihydro-1H-inden-5-yl)propanoic acid]: the pIC50 in assay [1] is not below 8.00. Further, in assay [2], the fold induction at 0.4 µM is more than 5.

`CC[C@@H]1CN(Cc2cc([C@@H](CC(=O)O)c3ccc4c(nnn4C)c3C)cc3c2CCC3)[C@@H](C)c2ncccc2O1` [Example 65, (3R)-3-(1,4-Dimethyl-1H-benzotriazol-5-yl)-3-(7-{[(2R,5S)-2-ethyl-5-methyl-2,3-dihydropyrido[2,3-f][1,4]oxazepin-4(5H)-yl]methyl}-2,3-dihydro-1H-inden-5-yl)propanoic acid]: the pIC50 in assay [1] was 7.52 to 8.00. Further, the fold induction at 0.4 µM in assay [2] is more than 5.

For the compound `CC[C@@H]1CN(Cc2cc(C(CC(=O)O)c3ccc4c(nnn4C)c3C)cc3c2CCC3)S(=O)(=O)c2ccccc2O1` (stereo partly drawn) [Example 12, 3-(1,4-Dimethyl-1H-benzotriazol-5-yl)-3-(7-{[(4R)-4-ethyl-1,1-dioxido-3,4-dihydro-2H-5,1,2-benzoxathiazepin-2-yl]methyl}-2,3-dihydro-1H-inden-5-yl)propanoic acid], the pIC50 in assay [1] is not below 8.00. For the same compound, in assay [2], the fold induction at 0.4 µM was more than 5.

Consider `Cc1c(C(CC(=O)O)c2cc3c(c(CN4CC(C)(C)Oc5ncccc5S4(=O)=O)c2)CCC3)ccc2c1nnn2C` (stereo not shown) [Example 34, 3-(1,4-Dimethyl-1H-benzotriazol-5-yl)-3-{7-[(4,4-dimethyl-1,1-dioxido-3,4-dihydro-2H-pyrido[2,3-b][1,4,5]oxathiazepin-2-yl)methyl]-2,3-dihydro-1H-inden-5-yl}propanoic acid], for which, in assay [1], the pIC50 is 7.52 to 8.00. In assay [2], the fold induction at 0.4 µM was more than 5.

Turning to `CC[C@@H]1CN(Cc2cc([C@H](CC(=O)O)c3ccc4c(nnn4C)c3C)cc3c2CCC3)S(=O)(=O)c2cc(Cl)c(F)cc2O1` [Example 21, (3S)-3-(7-{[(4R)-8-Chloro-4-ethyl-7-fluoro-1,1-dioxido-3,4-dihydro-2H-5,1,2-benzoxathiazepin-2-yl]methyl}-2,3-dihydro-1H-inden-5-yl)-3-(1,4-dimethyl-1H-benzotriazol-5-yl)propanoic acid], the pIC50 in assay [1] is not below 8.00. Moreover, in assay [2], the fold induction at 0.4 µM was more than 5.

For `Cc1c([C@H](CC(=O)O)c2cc(CN3C[C@@H](C4CC4)Oc4ccc(O)nc4C3C)c3sccc3c2)cnc2c1nnn2C` (single isomer, unassigned) [Example 86, (3R)-3-(7-{[(2R,5S*)-2-Cyclopropyl-7-hydroxy-5-methyl-2,3-dihydropyrido[2,3-f][1,4]oxazepin-4(5H)-yl]methyl}-1-benzothiophen-5-yl)-3-(3,7-dimethyl-3H-[1,2,3]triazolo[4,5-b]pyridin-6-yl)propanoic acid], the pIC50 in assay [1] was 7.00 to 7.52. Moreover, the activity ratio entry in assay [2] (NQO1 activity with 400 nM test compound as a ratio from the base without compound) was “A (5<NQO1 activity ratio)”.

Take `CC[C@@H]1CN(Cc2cc(C(CC(=O)O)c3cc(OC(F)(F)F)c4c(nnn4C)c3C)cc3ccsc23)S(=O)(=O)c2cc(Cl)cnc2O1` (stereo partly drawn) [Example 54, 3-(7-{[(4R)-8-Chloro-4-ethyl-1,1-dioxido-3,4-dihydro-2H-pyrido[2,3-b][1,4,5]oxathiazepin-2-yl]methyl}-1-benzothiophen-5-yl)-3-[1,4-dimethyl-7-(trifluoromethoxy)-1H-benzotriazol-5-yl]propanoic acid]: the pIC50 in assay [1] is 7.52 to 8.00. Besides, in assay [2], the fold induction at 0.4 µM was more than 5.

`CCC1c2ncccc2O[C@H](CC)CN1Cc1cc([C@H](CC(=O)O)c2ccc3c(nnn3C)c2C)cc2ccsc12` (single isomer, unassigned) [Example 76, (3S)-3-(7-{[(2R,5R*)-2,5-Diethyl-2,3-dihydropyrido[2,3-f][1,4]oxazepin-4(5H)-yl]methyl}-1-benzothiophen-5-yl)-3-(1,4-dimethyl-1H-benzotriazol-5-yl)propanoic acid] gave a pIC50 in assay [1] not below 8.00. Besides, the fold induction at 0.4 µM in assay [2] was more than 5.

Consider `CC[C@@H]1CN(Cc2cc(C(CC(=O)O)c3cnc4c(nnn4C)c3C)cc3ccsc23)S(=O)(=O)c2cc(Cl)cnc2O1` (stereo partly drawn) [Example 59, 3-(7-{[(4R)-8-Chloro-4-ethyl-1,1-dioxido-3,4-dihydro-2H-pyrido[2,3-b][1,4,5]oxathiazepin-2-yl]methyl}-1-benzothiophen-5-yl)-3-(3,7-dimethyl-3H-[1,2,3]triazolo[4,5-b]pyridin-6-yl)propanoic acid], for which, in assay [1], the pIC50 was 7.52 to 8.00. Moreover, the fold induction at 0.4 µM in assay [2] was more than 5.

For `CC[C@@H]1CN(Cc2cc(C(CC(=O)O)c3cc(C#N)c4c(nnn4C)c3C)cc3ccsc23)S(=O)(=O)c2cc(Cl)cnc2O1` (stereo partly drawn) [Example 52, 3-(7-{[(4R)-8-Chloro-4-ethyl-1,1-dioxido-3,4-dihydro-2H-pyrido[2,3-b][1,4,5]oxathiazepin-2-yl]methyl}-1-benzothiophen-5-yl)-3-(7-cyano-1,4-dimethyl-1H-benzotriazol-5-yl)propanoic acid], the pIC50 in assay [1] was 7.52 to 8.00. Besides, the fold induction at 0.4 µM in assay [2] is more than 5.

In turn, `CCOc1ccc2c(n1)O[C@H](CC)CN(Cc1cc([C@H](CC(=O)O)c3ccc4c(nnn4C)c3C)cc3ccsc13)S2(=O)=O` [Example 111, (3S)-3-(1,4-Dimethyl-1H-benzotriazol-5-yl)-3-(7-{[(4R)-7-ethoxy-4-ethyl-1,1-dioxido-3,4-dihydro-2H-pyrido[2,3-b][1,4,5]oxathiazepin-2-yl]methyl}-1-benzothiophen-5-yl)propanoic acid] gave a pIC50 in assay [1] not below 8.00. For the same compound, the fold induction at 0.4 µM in assay [2] is 3 to 5.

In the case of `CC[C@@H]1CN(Cc2cc([C@H](CC(=O)O)c3cc(OC(F)(F)F)c4c(nnn4C)c3C)cc3c2CCC3)S(=O)(=O)c2cc(Cl)cnc2O1` [Example 100, (3S)-3-(7-{[(4R)-8-Chloro-4-ethyl-1,1-dioxido-3,4-dihydro-2H-pyrido[2,3-b][1,4,5]oxathiazepin-2-yl]methyl}-2,3-dihydro-1H-inden-5-yl)-3-[1,4-dimethyl-7-(trifluoromethoxy)-1H-benzotriazol-5-yl]propanoic acid], the pIC50 in assay [1] is not below 8.00. In assay [2], the fold induction at 0.4 µM was more than 5.

Consider `CC[C@@H]1CN(Cc2cc([C@@H](CC(=O)O)c3ccc4c(nnn4C)c3C)cc3c2CCC3)S(=O)(=O)c2cc(C)cnc2O1` [Example 47, (3R)-3-(1,4-Dimethyl-1H-benzotriazol-5-yl)-3-(7-{[(4R)-4-ethyl-8-methyl-1,1-dioxido-3,4-dihydro-2H-pyrido[2,3-b][1,4,5]oxathiazepin-2-yl]methyl}-2,3-dihydro-1H-inden-5-yl)propanoic acid], for which, in assay [1], the pIC50 is not below 8.00. In assay [2], the fold induction at 0.4 µM lay within 3 to 5.
